# Test results published in patent publication US11065304B2, “Peptide pharmaceuticals for insulin resistance” (MEDERIS DIABETES, LLC, priority 2012, dated 2021).
# How the values were obtained:
# GLP-1 R = GLP-1 R (Homo sapiens, UniProt P43220); assay: DiscoveRx LeadHunter cellular assay, cAMP stimulation, GLP-1 receptor; type: cell-based
# Description: (§1) § means superagonist A further series of cellular assays were carried out using standard cellular assays (DiscoveRx, LeadHunter assays) using readout of cAMP stimulation or arrestin activation. Compounds were weighed precisely in an amount of approximately 1 mg and shipped to DiscoveRx for dilution and assay.
# glucagon R = target: T1, glucagon R (Homo sapiens, UniProt P47871); assay: DiscoveRx LeadHunter cellular assay, cAMP stimulation, glucagon receptor; type: cell-based
# T1 construct: host or cells: CHO cells
# Description: as §1
# db/db mice = assay: In vivo assay in db/db mice (blood glucose, body weight, food consumption); details: for db/db mice - Mean Blood Glucose, 10 hr: 10 hr after first dose; for db/db mice - Mean Blood Glucose, 24 hr: 24 hr after first dose; for db/db mice - Mean Blood Glucose, 48 hr: 48 hr after first dose
# Description: The 60 female db/db B6BKS (D) Leprdb/J (strain 000697) mice for this study were approximately 8 to 9 weeks old at arrival (Jackson Laboratory, Bar Harbor, Me.). […] One group of 8 female mice served as the vehicle control and received the vehicle, 0.2% BSA in saline, pH 7.4. One additional group of 8 female mice received the positive control article, liraglutide, at a dose level of 50 nmoles/kg. The test articles, vehicle, and positive control article were administered on Day 1, at approximately 0, 7, and 24 hours during the study via subcutaneous injection at a dose volume of 6 mL/kg.
# Clinical observations were conducted at receipt, prior to randomization, and daily from Days 1 to 5. Body weights were measured and recorded at receipt, prior to randomization, and daily from Days 1 to 5. Food consumption was measured and recorded daily from Days 1 to 5. Blood samples for glucose analysis were collected pretest (Day −3) and at 0, 1, 2, 4, 8, 10, 24, 48, 72, and 96 hours following the first dose on Day 1. At study termination all animals were euthanized and the carcasses were discarded without further evaluation.
# [1] = in water; cited from earlier work
# T1 sequence (P47871 26-477): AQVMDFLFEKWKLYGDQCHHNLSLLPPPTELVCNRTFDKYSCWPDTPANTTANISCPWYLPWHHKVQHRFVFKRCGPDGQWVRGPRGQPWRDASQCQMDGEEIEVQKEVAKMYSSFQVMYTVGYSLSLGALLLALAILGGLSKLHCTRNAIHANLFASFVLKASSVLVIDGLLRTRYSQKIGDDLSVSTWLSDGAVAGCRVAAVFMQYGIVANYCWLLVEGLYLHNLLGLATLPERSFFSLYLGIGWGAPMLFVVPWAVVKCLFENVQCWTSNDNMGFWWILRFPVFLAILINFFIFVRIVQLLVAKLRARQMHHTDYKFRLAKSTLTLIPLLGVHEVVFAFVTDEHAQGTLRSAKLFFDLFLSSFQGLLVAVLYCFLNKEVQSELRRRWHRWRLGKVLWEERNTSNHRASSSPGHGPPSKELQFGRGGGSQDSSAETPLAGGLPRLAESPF
# GLP-1 R, sequence (P43220 24-463): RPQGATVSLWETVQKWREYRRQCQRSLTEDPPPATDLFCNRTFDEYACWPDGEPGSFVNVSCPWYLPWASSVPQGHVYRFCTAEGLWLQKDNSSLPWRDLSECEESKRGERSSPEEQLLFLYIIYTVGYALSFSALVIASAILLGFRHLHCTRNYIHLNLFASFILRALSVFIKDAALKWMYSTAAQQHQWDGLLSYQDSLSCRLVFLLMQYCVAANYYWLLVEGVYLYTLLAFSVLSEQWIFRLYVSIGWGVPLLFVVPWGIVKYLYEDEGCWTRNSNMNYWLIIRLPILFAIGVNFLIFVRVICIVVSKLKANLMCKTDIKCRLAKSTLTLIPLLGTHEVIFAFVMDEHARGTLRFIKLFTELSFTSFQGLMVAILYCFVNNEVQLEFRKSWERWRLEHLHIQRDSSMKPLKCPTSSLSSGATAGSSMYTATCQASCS
Molecule,EC50 (glucagon R),"db/db mice - Mean Blood Glucose, 0 hr (db/db mice; 250 nmole/kg s.c.)","db/db mice - Mean Blood Glucose, 10 hr (db/db mice; 250 nmole/kg s.c.)","db/db mice - Mean Blood Glucose, 24 hr (db/db mice; 250 nmole/kg s.c.)","db/db mice - Mean Blood Glucose, 48 hr (db/db mice; 250 nmole/kg s.c.)",CMC (critical micelle concentration) [1],further results
"CCCCCCCCCCO[C@@H]1O[C@H](C(=O)NCCCC[C@H](NC(=O)[C@@H](NC(=O)[C@H](Cc2ccccc2)NC(=O)[C@H](CCC(=O)O)NC(=O)[C@@H]2CCCCNC(=O)CC[C@H](NC(=O)[C@H](CC(=O)O)NC(=O)[C@H](CC(C)C)NC(=O)[C@H](Cc3ccc(O)cc3)NC(=O)[C@H](CCCCN)NC(=O)[C@H](CO)NC(=O)[C@H](Cc3ccc(O)cc3)NC(=O)[C@H](CC(=O)O)NC(=O)[C@H](CO)NC(=O)[C@@H](NC(=O)[C@H](Cc3ccccc3)NC(=O)[C@@H](NC(=O)CNC(=O)[C@H](CCC(N)=O)NC(=O)C(C)(C)NC(=O)[C@@H](N)Cc3c[nH]cn3)[C@@H](C)O)[C@@H](C)O)C(=O)N[C@@H](CCC(N)=O)C(=O)N[C@@H](C)C(=O)N[C@@H](C)C(=O)N2)[C@@H](C)CC)C(=O)N[C@@H](Cc2c[nH]c3ccccc23)C(=O)N[C@@H](CC(C)C)C(=O)N[C@@H](CC(C)C)C(=O)N[C@@H](CCC(N)=O)C(=O)N[C@H](C(N)=O)[C@@H](C)O)[C@@H](O)[C@H](O)[C@H]1O [EU-A1167, His1-Aib2-Gln3-Gly4-Thr5-Phe6-Thr7-Ser8-Asp9-Tyr10-Ser11-Lys12-Tyr13-Leu14-Asp15-Glu*16-Gln17 Ala18-Ala19-Lys*20-Glu21-Phe22-Ile23-Lys(N-omega(1-decylbeta-D-glucuronyl))24-Trp25-Leu26-Leu27-Gln28-Thr29-NH2]",0.019 nM,379 mg/dL,171 mg/dL,117 mg/dL,113 mg/dL,–,EC50 (GLP-1 R): 0.013 nM
CCCCCCCCO[C@@H]1O[C@H](CO)[C@@H](O[C@H]2O[C@H](CO)[C@@H](O)[C@H](O)[C@H]2O)[C@H](O)[C@H]1O [Octyl maltoside],–,–,–,–,–,19.5 mM,–
CCCCCCCCCCCCO[C@@H]1O[C@H](CO)[C@@H](O[C@H]2O[C@H](CO)[C@@H](O)[C@H](O)[C@H]2O)[C@H](O)[C@H]1O [Dodecyl-β-D-maltoside],–,–,–,–,–,0.17 mM,–
"CCCCCCCCCCCO[C@@H]1O[C@H](C(=O)NCCCC[C@H](NC(=O)[C@@H](NC(=O)[C@H](Cc2ccccc2)NC(=O)[C@H](CCC(=O)O)NC(=O)[C@@H]2CCCCNC(=O)CC[C@H](NC(=O)[C@H](CC(=O)O)NC(=O)[C@H](CC(C)C)NC(=O)[C@H](Cc3ccc(O)cc3)NC(=O)[C@H](CCCCN)NC(=O)[C@H](CO)NC(=O)[C@H](Cc3ccc(O)cc3)NC(=O)[C@H](CC(=O)O)NC(=O)[C@H](CO)NC(=O)[C@@H](NC(=O)[C@H](Cc3ccccc3)NC(=O)[C@@H](NC(=O)CNC(=O)[C@H](CCC(N)=O)NC(=O)C(C)(C)NC(=O)[C@@H](N)Cc3c[nH]cn3)[C@@H](C)O)[C@@H](C)O)C(=O)N[C@@H](CCC(N)=O)C(=O)N[C@@H](C)C(=O)N[C@@H](C)C(=O)N2)[C@@H](C)CC)C(=O)N[C@@H](Cc2c[nH]c3ccccc23)C(=O)N[C@@H](CC(C)C)C(=O)N[C@@H](CC(C)C)C(=O)N[C@@H](CCC(N)=O)C(=O)N[C@H](C(N)=O)[C@@H](C)O)[C@@H](O)[C@H](O)[C@H]1O [EU-A1168, His1-Aib2-Gln3-Gly4-Thr5-Phe6-Thr7-Ser8-Asp9-Tyr10-Ser11-Lys12-Tyr13-Leu14-Asp15-Glu*16-Gln17 Ala18-Ala19-Lys*20-Glu21-Phe22-Ile23-Lys(N-omega(1-undecylbeta-D-glucuronyl))24-Trp25-Leu26-Leu27-Gln28-Thr29-NH2]",0.14 nM,380 mg/dL,133 mg/dL,169 mg/dL,164 mg/dL,–,EC50 (GLP-1 R): 0.07 nM
"CCCCCCCCO[C@@H]1O[C@H](C(=O)NCCCC[C@H](NC(=O)[C@@H](NC(=O)[C@H](Cc2ccccc2)NC(=O)[C@H](CCC(=O)O)NC(=O)[C@@H]2CCCCNC(=O)CC[C@H](NC(=O)[C@H](CC(=O)O)NC(=O)[C@H](CC(C)C)NC(=O)[C@H](Cc3ccc(O)cc3)NC(=O)[C@H](CCCCN)NC(=O)[C@H](CO)NC(=O)[C@H](Cc3ccc(O)cc3)NC(=O)[C@H](CC(=O)O)NC(=O)[C@H](CO)NC(=O)[C@@H](NC(=O)[C@H](Cc3ccccc3)NC(=O)[C@@H](NC(=O)CNC(=O)[C@H](CCC(N)=O)NC(=O)C(C)(C)NC(=O)[C@@H](N)Cc3c[nH]cn3)[C@@H](C)O)[C@@H](C)O)C(=O)N[C@@H](CCC(N)=O)C(=O)N[C@@H](C)C(=O)N[C@@H](C)C(=O)N2)[C@@H](C)CC)C(=O)N[C@@H](Cc2c[nH]c3ccccc23)C(=O)N[C@@H](CC(C)C)C(=O)N[C@@H](CC(C)C)C(=O)N[C@@H](CCC(N)=O)C(=O)N[C@H](C(N)=O)[C@@H](C)O)[C@@H](O)[C@H](O)[C@H]1O [EU-A992, His1-Aib2-Gln3-Gly4-Thr5-Phe6-Thr7-Ser8-Asp9-Tyr10-Ser11-Lys12-Tyr13-Leu14-Asp15-Glu*16-Gln17 Ala18-Ala19-Lys*20-Glu21-Phe22-Ile23-Lys(N-omega(1-octylbeta-D-glucuronyl))24-Trp25-Leu26-Leu27-Gln28-Thr29-NH2]",0.019 nM,405 mg/dL,104 mg/dL,112 mg/dL,130 mg/dL,–,–
CCCCCCCCCCO[C@@H]1O[C@H](CO)[C@@H](O[C@H]2O[C@H](CO)[C@@H](O)[C@H](O)[C@H]2O)[C@H](O)[C@H]1O [Decyl maltoside],–,–,–,–,–,1.8 mM,–
CCCCCCCCCCCCCO[C@@H]1O[C@H](CO)[C@@H](OC2OC(CO)C(O)C(O)C2O)[C@H](O)[C@H]1O (stereo in doubt) [Tridecyl maltoside],–,–,–,–,–,0.03 mM,–
CCCCCCCCCCCCCCO[C@@H]1O[C@H](CO)[C@@H](O[C@@H]2O[C@@H](CO)[C@H](O)[C@@H](O)[C@@H]2O)[C@H](O)[C@H]1O (stereo in doubt) [Tetradecyl maltoside],–,–,–,–,–,0.01 mM,–
"CCCCCCCCCCCCO[C@@H]1O[C@H](CO[C@H]2O[C@H](C(=O)NCCCC[C@H](NC(=O)[C@@H](NC(=O)[C@H](Cc3ccccc3)NC(=O)[C@H](CCC(=O)O)NC(=O)[C@@H]3CCCCNC(=O)CC[C@H](NC(=O)[C@H](CC(=O)O)NC(=O)[C@H](CC(C)C)NC(=O)[C@H](Cc4ccc(O)cc4)NC(=O)[C@H](CCCCN)NC(=O)[C@H](CO)NC(=O)[C@H](Cc4ccc(O)cc4)NC(=O)[C@H](CC(=O)O)NC(=O)[C@H](CO)NC(=O)[C@@H](NC(=O)[C@H](Cc4ccccc4)NC(=O)[C@@H](NC(=O)CNC(=O)[C@H](CCC(N)=O)NC(=O)C(C)(C)NC(=O)[C@@H](N)Cc4c[nH]cn4)[C@@H](C)O)[C@@H](C)O)C(=O)N[C@@H](CCC(N)=O)C(=O)N[C@@H](C)C(=O)N[C@@H](C)C(=O)N3)[C@@H](C)CC)C(=O)N[C@@H](Cc3c[nH]c4ccccc34)C(=O)N[C@@H](CC(C)C)C(=O)N[C@@H](CC(C)C)C(=O)N[C@@H](CCC(N)=O)C(=O)N[C@H](C(N)=O)[C@@H](C)O)[C@H](O)[C@H](O)[C@H]2O)[C@@H](O)[C@H](O)[C@H]1O [EU-A1023, His1-Aib2-Gln3-Gly4-Thr5-Phe6-Thr7-Ser8-Asp9-Tyr10-Ser11-Lys12-Tyr13-Leu14-Asp15-Glu*16-Gln17 Ala18-Ala19-Lys*20-Glu21-Phe22-Ile23-Lys(N-omega(1-dodecylbeta-D-melibiouronyl))24-Trp25-Leu26-Leu27-Gln28-Thr29-NH2]",–,508 mg/dL,264 mg/dL,194 mg/dL,375 mg/dL,–,"db/db mice - Mean Blood Glucose, 0 hr (db/db mice; 50 nmole/kg s.c.): 507 mg/dL; db/db mice - Mean Blood Glucose, 10 hr (db/db mice; 50 nmole/kg s.c.): 310 mg/dL; db/db mice - Mean Blood Glucose, 24 hr (db/db mice; 50 nmole/kg s.c.): 355 mg/dL; db/db mice - Mean Blood Glucose, 48 hr (db/db mice; 50 nmole/kg s.c.): 375 mg/dL"
Sucrose dodecanoate,–,–,–,–,–,0.3 mM,–
